This is an account of results in US12303554B2, “Use of ultrarapid acting insulin” (MannKind Corporation, priority 2008, dated 2025).

For data set [1] the following is noted: cited from earlier work.
Data set [2] can be described thus: 52-week clinical trial in type 1 diabetes: basal insulin + prandial TI Inhalation Powder vs basal insulin + SC insulin aspart. It counts as in vivo, human. From the text:
A Prospective, Multi-Center, Open-Label, Randomized, Controlled Clinical Trial Comparing the Efficacy and Safety in Subjects with Type 1 Diabetes Receiving SC Basal Insulin and Prandial Inhalation of Insulin-FDKP Versus SC Basal and Prandial Insulin Over a 52-Week Treatment Period and a 4-Week Follow-up
This was a prospective, multi-country, multicenter, open label, randomized, controlled clinical trial comparing glycemic control in subjects with type 1 diabetes receiving basal insulin and prandial insulin-FDKP (TI) Inhalation Powder (TI Inhalation Powder group) with subjects receiving basal insulin and SC rapid-acting insulin aspart (comparator group). This study included a 52-week treatment phase and a 4-week follow-up phase. During the 4-week follow-up phase, pulmonary function and select clinical laboratory assessments were scheduled.
The study began with enrollment at Week −3. Subjects received a complete battery of safety and eligibility assessments, including HbA1c and fasting plasma glucose (FPG).
At Week −1, subjects were randomized to one of the following 2 treatments: • Basal insulin+prandial TI Inhalation Powder • Basal insulin+prandial SC rapid-acting insulin
At Week −1, subjects again completed the first three components of the Insulin Treatment Questionnaire (ITQ) for the purpose of assessing test-retest reliability only). After completing the questionnaire, subjects randomized to the TI Inhalation Powder group were trained on the MEDTONE® Inhaler using TECHNOSPHERE®/insulin (insulin-FDKP) inhalation powder; subjects in the comparator group were trained in the use of the NOVOLOG® pens; all subjects were trained in administration of LANTUS®. Additionally, all subjects were trained on a blood glucose monitoring (HBGM) meter provided at the beginning of the trial and diary and received diabetes education. Any training was repeated at Week 0, if needed.
At the beginning of the treatment phase, subjects had several titration/dose evaluation visits to adjust insulin therapy. Titration visits occurred once a week for the first 4 weeks. During Weeks 4 through 10, there were three telephone “visits” (at Week 6, Week 8, and Week 10) to titrate dose, if necessary. However, dose titration was allowed throughout the trial.
All subjects completed a 7-point blood glucose profile on any 3 days during the week immediately preceding each visit from Week 0 to Week 52. The 7 time points included samples from before breakfast and 2 hours after breakfast, before the mid-day meal and 2 hours after the mid-day meal, before the evening meal and 2 hours after the evening meal and at bedtime (7 time points a day, over 3 days). These blood glucose (BG) values were recorded in the HBGM diary that was collected at clinic visits. The diaries for Weeks 4 through 10 (during dose titration) which were discussed over the telephone were collected at the next office visits.
A meal challenge test was performed at Week 4 (during dose titration), Week 26, and Week 52. Meal challenge venous blood sampling times were: −30, 0, 30, 60, 90, 105, 120, 180, 240, 300, and 360 minutes. Blood glucose (BG) was also measured using HBGM glucose meters to aid the Investigator in treatment decisions and values were obtained at −30, 0, 60, and 120 minutes during the meal challenge.
Treatments for glycemic control used in the trial were the following: prandial insulin-FDKP (TI) inhalation powder, prandial insulin aspart, and basal insulin glargine. Subjects assigned to the TI Inhalation Powder group (TI Inhalation Powder in combination with basal insulin therapy) received sc basal insulin glargine (LANTUS®) once daily (at bedtime) and inhaled TI Inhalation Powder 3 to 4 times a day, immediately before main meals or a snack as based upon clinical need. Adjustment of the TI Inhalation Powder dose and frequency of use to greater than 3 times a day was at the discretion of the Investigator. […]

The format of data set [3] is in vivo, human. On the procedure: The insulin-FDKP formulation is administered to the subjects by oral inhalation using a MEDTONE® dry powder inhaler (MannKind Corp.). Methods and results below are described in terms of the Original Protocol (OP), which includes the meal challenge in 18 subjects with three treatments (EXUBERA®, lispro and TI) and Amendment 1 (A1), which includes 12 subjects treated with only TI and lispro. […] The subjects were screened and evaluated before, during and after the experiments and their data analyzed as described below. Subjects were selected based on several key inclusion criteria, including, male and female, having ≥18 and ≤70 years of age with clinical diagnosis of type 2 diabetes mellitus for ≥12 months. The subjects selected for the study also had stable anti-diabetic regimen with insulin for the previous 3 months; HbA1c ≤8.5%; Body Mass Index (BMI) between ≤34 kg/m^2 and ≥25 kg/m^2; urine cotinine ≤100 ng/mL; […] Criteria for exclusion from the study also included unstable diabetes control and/or evidence of serious complications of diabetes (e.g., autonomic neuropathy); serum creatinine >1.8 mg/dL in female subjects and >2.0 mg/dL in male subjects. Other clinically important pulmonary disease was confirmed by documented history or pulmonary function testing. Under OP, the study was planned to be a randomized, open label, 3-way cross-over study. […] At this analysis all patients at least had completed the meal challenge visits and only those data have been used. The screening visit(s) (V1) occurred 1 to 21 days before the first treatment visit (V2) with 7 to 21 days elapsing between treatment-visits (V2, V3, and V4) for the meal challenge test. A minimum of 8 weeks elapsed between V4 and the next treatment visit, (V6). An additional safety visit (V5) was scheduled 1-3 days prior to the first of 3 glucose clamp procedures (V6). The glucose clamp procedure occurred at 3 visits, Visits V6, V7, and V8, with 7 to 21 days elapsing between the visits. […] Each treatment visit during the meal challenge had the subjects hospitalized in the clinical unit the night before initiation of treatment. […] Each subject followed the same randomization order for the glucose-clamp procedures as for the meal challenge tests. During the study, periodic blood draws for determination of pharmacokinetic and/or pharmacodynamic parameters, and safety were taken beginning at 12 hours prior to onset of the treatment regimens and meal challenge, and thereafter for a period of 8 hours. […] Meal Challenge Test: BOOST PLUS® (12 fl. oz.) consisting of 67.5 g carbohydrate, 21 g protein, 21 g fat, energy content 540 kcal was used for the meal challenge test. The BOOST PLUS® was enriched with U-^13C-glucose to determine the amount of absorbed glucose. Concurrent enriched continuous infusion of 6,6-^2H2 glucose was used to assess endogenous glucose production EGP. […] Under OP, the dose for insulin lispro was selected based on information obtained from the regulatory label. The dose selected for EXUBERA® was obtained by means of back calculation of the most commonly used dose information presented to the FDA Advisory Committee in the EXUBERA® Briefing Document. […] Blood glucose concentrations were measured at regular intervals from arterialized venous blood samples. The amount of orally absorbed glucose was estimated by determination of U-^13C-glucose. EGP was determined by measurement of 6,6-^2H2 glucose applying the modified calculations for the non-steady state ([…], and D. T. Stein. Calculating glucose fluxes during meal tolerance test: a new computational approach. Am. J. Physiol Endocrinol. Metab 293 (2):[…]-[…], 2007). C-peptide concentrations were measured pre- and post-dose to assess endogenous insulin secretion. In addition, glucagon and free fatty acid concentrations were also determined.

The format of data set [4] is in vivo, human. The settings on record: 10 U lispro. As to the method:
Following the completion of the meal challenge, the data was analyzed as per the statistical analysis plan. […] The study was amended (A1) and included 12 subjects (10 were reenrolled from the first meal challenge), and only two treatments, which were 10 U lispro and 60 and 90 U TI. The doses were selected based on the relative bioavailability observed following the first meal challenge (OP), where under an assumption of linear kinetics, 10 U lispro and 60 U TI would result in similar exposure. The 90 U dose group was included to assess the effect of the highest dose group of TI studied in Phase 3 trials. Six of the 12 subjects received 60 U TI and the other 6 subjects received 90 U TI. All 12 subjects received 10 U lispro in a crossover fashion. […] Blood glucose concentrations were measured at regular intervals from arterialized venous blood samples. […] EGP was determined by measurement of 6,6-^2H2 glucose applying the modified calculations for the non-steady state ([…], and D. T. Stein. Calculating glucose fluxes during meal tolerance test: a new computational approach. Am. J. Physiol Endocrinol. Metab 293 (2):[…]-[…], 2007). C-peptide concentrations were measured pre- and post-dose to assess endogenous insulin secretion. In addition, glucagon and free fatty acid concentrations were also determined.

[5] abbreviates: 52 weeks, + basal insulin glargine.
The mark [6] stands for this setting: 52 weeks, + basal insulin, baseline 187.6 (SD 85.1) TI, 180.8 (SD 86.9) comparator.
The mark [7] stands for this setting: 45 U insulin-FDKP, 4 mg EXUBERA, 12 U lispro, FIG. 6.

Like-named read-outs stand apart in the source and are kept apart here.

On to “Regular human insulin: regular human insulin preparations for subcutaneous injection, considered short acting”, for which, in data set [1] (subcutaneous injection), the “Duration of significant elevation or activity” value was 10 to 12 h.
As for insulin aspart, the “Median Tmax” value in data set [1] (subjects with type 1 diabetes, prescribing information) was 40 to 50 min. Also, in data set [2] (setting [5]), the “Percentage of subjects whose HbA1c level decreased to ≤6.5%” value came out at 7.31%, the “Percentage of subjects whose HbA1c level decreased to ≤7.0%” value is given as 15.98% and the “Percentage of subjects whose HbA1c level decreased to ≤8.0%” value came out at 56.16%. Besides, in data set [2] (setting [6]), the “Mean FPG at the end of the treatment period” value is recorded as 161.3 (SD 68.2) mg/dL and the “Mean decrease in fasting plasma glucose (FPG) over the treatment period” value is on record as 23.4 (SD 103.1) mg/dL. Besides, the “HbA1c at Week 14” value in data set [2] (+ basal insulin glargine, baseline 8.41 (SD 0.92) TI arm, 8.48 (SD 0.97) insulin aspart arm) is reported as 8.07 (SD 1.09) %. The “Average body weight gain” value in data set [2] (over the 52-week treatment period, + basal insulin) was found to be 1.4 kg.
“insulin glulisine: rapid acting insulin analog”: the “Range of Tmax” value in data set [1] (type 1 and type 2 diabetes populations, prescribing information) is 40 to 120 min.
Take “insulin lispro: rapid acting insulin analog, subcutaneously administered (Eli Lilly & Co.)”: the “Time post-treatment at which (further) glucose infusion was needed to remain above 90 mg/dL” value in data set [3] (45 U insulin-FDKP inhaled, 4 mg EXUBERA inhaled, 12 U lispro sc at onset of meal) was ~3 h. The “Time of peak inhibition of endogenous glucose production after treatment” value in data set [3] (45 U insulin-FDKP, 4 mg EXUBERA, 12 U lispro, FIG. 5) is “about 80 minutes”. Further, in data set [3] (setting [7]), the “Time of peak glucose disappearance rate after dosing” value is listed as “about 120 minutes” and the “Time post dosing at which glucose disappearance rate became substantial / departed from baseline” value is “about 30 minutes”. In data set [3] (human, in vivo), the “Total insulin exposure, greater than following 45 U insulin-FDKP (TI) or 4 mg EXUBERA” value is “approximately 40%”. Also, in data set [3] (human, in vivo, 4 mg), the “Insulin concentration tmax (median)” value came out at 75 min. In addition, the “Time of peak glucose disappearance rate after dosing” value in data set [4] (60 U and 90 U insulin-FDKP, FIG. 11) was “about 100 minutes”. Besides, in data set [4] (60 U or 90 U insulin-FDKP (two treatments, dose assignment not stated), FIG. 10), the “Time of peak inhibition of endogenous glucose production following dosing” value is recorded as “about 100 minutes”.
